Measured values published in the supplement of paper PMC10307832.

Tests used:
Experiment in all cases: relative viability (nuclei count vs DMSO), 5 days (fraction); higher = more cells survive
[1] = test system: NCI-H2023
How it was run: (§1)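 Each reported value is a median over duplicate plates. It expresses relative viability: treated-well nuclei count divided by vehicle-well nuclei count. Lung cancer cell lines in 1536-well plates were dosed by pin tool a day after seeding, alone with one drug or with a fixed anchor-drug dose plus five library-drug doses (not always all listed) in √10 steps, and nuclei were counted after 5 days.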

[2] = test system: NCI-H1793
How it was run: as §1

[3] = test system: SK-LU-1
How it was run: as §1

[4] = test system: EMC-BAC-2
How it was run: as §1

[5] = test system: HCC-78
How it was run: as §1

[6] = test system: LC-2-ad
How it was run: as §1

[7] = test system: NCI-H2405
How it was run: as §1

[8] = test system: NCI-H2009
How it was run: as §1

[9] = test system: UMC-11
How it was run: as §1

[10] = test system: HCC-15
How it was run: as §1

[11] = test system: NCI-H23
How it was run: as §1

[12] = test system: COR-L23
How it was run: as §1

[13] = test system: NCI-H1993
How it was run: as §1

[14] = test system: ABC-1
How it was run: as §1

[15] = test system: NCI-H1944
How it was run: as §1

[16] = test system: HCC-366
How it was run: as §1

[17] = test system: NCI-H2228
How it was run: as §1

[18] = test system: NCI-H2126
How it was run: as §1

[19] = test system: NCI-H838
How it was run: as §1

[20] = test system: NCI-H1734
How it was run: as §1

[21] = test system: HARA
How it was run: as §1

[22] = test system: A-427
How it was run: as §1

With `CC1(C)CCC(c2ccc(Cl)cc2)=C(CN2CCN(c3ccc(C(=O)NS(=O)(=O)c4ccc(N[C@H](CCN5CCOCC5)CSc5ccccc5)c(S(=O)(=O)C(F)(F)F)c4)cc3)CC2)C1` [Navitoclax] + Cc1nc(NC(=O)N2CCC[C@H]2C(N)=O)sc1-c1ccnc(C(C)(C)C(F)(F)F)c1 [Alpelisib] (partner 2 µM) the relative viability ([1]; first compound 0.005 µM) was 0.581, the relative viability ([1]; first compound 0.01581 µM) was 0.696 and the relative viability ([1]; first compound 0.05 µM) was 0.586. The relative viability ([1]; first compound 0.1581 µM) was 0.616, the relative viability ([1]; first compound 0.5 µM) was 0.625 and the relative viability ([2]; first compound 0.005 µM) was 0.772. The relative viability ([2]; first compound 0.01581 µM) was 0.799, the relative viability ([2]; first compound 0.05 µM) was 0.574 and the relative viability ([2]; first compound 0.1581 µM) was 0.858. It also gave a relative viability ([2]; first compound 0.5 µM) of 0.609, a relative viability ([3]; first compound 0.005 µM) of 0.979 and a relative viability ([3]; first compound 0.01581 µM) of 1.12. The relative viability ([3]; first compound 0.05 µM) was 1.23, the relative viability ([3]; first compound 0.1581 µM) was 0.906 and the relative viability ([3]; first compound 0.5 µM) was 0.867. The relative viability ([4]; first compound 0.005 µM) was 0.733, the relative viability ([4]; first compound 0.01581 µM) was 0.764 and the relative viability ([4]; first compound 0.05 µM) was 0.745. The relative viability ([4]; first compound 0.1581 µM) was 0.69, the relative viability ([4]; first compound 0.5 µM) was 0.759 and the relative viability ([5]; first compound 0.005 µM) was 0.309. For the same compound, the relative viability ([5]; first compound 0.01581 µM) was 0.352, the relative viability ([5]; first compound 0.1581 µM) was 0.341 and the relative viability ([5]; first compound 0.5 µM) was 0.339. It also gave a relative viability ([6]; first compound 0.005 µM) of 0.972, a relative viability ([6]; first compound 0.01581 µM) of 0.948 and a relative viability ([6]; first compound 0.05 µM) of 0.901. It also gave a relative viability ([6]; first compound 0.1581 µM) of 0.946, a relative viability ([6]; first compound 0.5 µM) of 0.904 and a relative viability ([7]; first compound 0.005 µM) of 0.762. For the same compound, the relative viability ([7]; first compound 0.01581 µM) was 0.896, the relative viability ([7]; first compound 0.05 µM) was 0.954 and the relative viability ([7]; first compound 0.1581 µM) was 0.83. The relative viability ([7]; first compound 0.5 µM) was 0.834, the relative viability ([8]; first compound 0.005 µM) was 1.08 and the relative viability ([8]; first compound 0.01581 µM) was 1.16. It also gave a relative viability ([8]; first compound 0.05 µM) of 1.15, a relative viability ([8]; first compound 0.1581 µM) of 1.2 and a relative viability ([8]; first compound 0.5 µM) of 1.21. It also gave a relative viability ([9]; first compound 0.005 µM) of 0.961, a relative viability ([9]; first compound 0.01581 µM) of 1.02 and a relative viability ([9]; first compound 0.1581 µM) of 0.979. It also gave a relative viability ([9]; first compound 0.5 µM) of 0.623, a relative viability ([10]; first compound 0.005 µM) of 0.879 and a relative viability ([10]; first compound 0.01581 µM) of 0.957. For the same compound, the relative viability ([10]; first compound 0.05 µM) was 0.88, the relative viability ([10]; first compound 0.1581 µM) was 0.882 and the relative viability ([10]; first compound 0.5 µM) was 0.764. It also gave a relative viability ([11]; first compound 0.005 µM) of 0.649, a relative viability ([11]; first compound 0.01581 µM) of 0.679 and a relative viability ([11]; first compound 0.05 µM) of 0.676. The relative viability ([11]; first compound 0.1581 µM) was 0.633, the relative viability ([11]; first compound 0.5 µM) was 0.598 and the relative viability ([12]; first compound 0.005 µM) was 0.67. The relative viability ([12]; first compound 0.01581 µM) was 0.807, the relative viability ([12]; first compound 0.05 µM) was 0.697 and the relative viability ([12]; first compound 0.1581 µM) was 0.7. For the same compound, the relative viability ([12]; first compound 0.5 µM) was 0.855, the relative viability ([13]; first compound 0.005 µM) was 0.658 and the relative viability ([13]; first compound 0.01581 µM) was 0.732. It also gave a relative viability ([13]; first compound 0.05 µM) of 0.682, a relative viability ([13]; first compound 0.1581 µM) of 0.676 and a relative viability ([13]; first compound 0.5 µM) of 0.749. For the same compound, the relative viability ([14]; first compound 0.005 µM) was 1.14, the relative viability ([14]; first compound 0.01581 µM) was 1.39 and the relative viability ([14]; first compound 0.05 µM) was 1.04. For the same compound, the relative viability ([14]; first compound 0.1581 µM) was 0.899, the relative viability ([14]; first compound 0.5 µM) was 1.01 and the relative viability ([15]; first compound 0.005 µM) was 0.832. For the same compound, the relative viability ([15]; first compound 0.01581 µM) was 0.863, the relative viability ([15]; first compound 0.05 µM) was 0.786 and the relative viability ([15]; first compound 0.1581 µM) was 0.836. It also gave a relative viability ([15]; first compound 0.5 µM) of 0.82, a relative viability ([16]; first compound 0.005 µM) of 0.391 and a relative viability ([16]; first compound 0.01581 µM) of 0.588. The relative viability ([16]; first compound 0.05 µM) was 0.132, the relative viability ([16]; first compound 0.1581 µM) was 0.338 and the relative viability ([16]; first compound 0.5 µM) was 0.361. For the same compound, the relative viability ([17]; first compound 0.005 µM) was 0.745, the relative viability ([17]; first compound 0.01581 µM) was 0.725 and the relative viability ([17]; first compound 0.05 µM) was 0.602. The relative viability ([17]; first compound 0.1581 µM) was 0.688, the relative viability ([17]; first compound 0.5 µM) was 0.819 and the relative viability ([18]; first compound 0.005 µM) was 0.7. The relative viability ([18]; first compound 0.01581 µM) was 0.764, the relative viability ([18]; first compound 0.05 µM) was 0.757 and the relative viability ([18]; first compound 0.1581 µM) was 0.727. It also gave a relative viability ([18]; first compound 0.5 µM) of 0.771, a relative viability ([19]; first compound 0.005 µM) of 0.96 and a relative viability ([19]; first compound 0.01581 µM) of 1.1. The relative viability ([19]; first compound 0.05 µM) was 1.12, the relative viability ([19]; first compound 0.1581 µM) was 1.03 and the relative viability ([19]; first compound 0.5 µM) was 1.03. For the same compound, the relative viability ([20]; first compound 0.005 µM) was 0.618, the relative viability ([20]; first compound 0.01581 µM) was 0.779 and the relative viability ([20]; first compound 0.1581 µM) was 0.645. The relative viability ([20]; first compound 0.5 µM) was 0.63, the relative viability ([21]; first compound 0.005 µM) was 0.657 and the relative viability ([21]; first compound 0.01581 µM) was 1.05. The relative viability ([21]; first compound 0.05 µM) was 0.622, the relative viability ([21]; first compound 0.1581 µM) was 0.881 and the relative viability ([21]; first compound 0.5 µM) was 0.898. For the same compound, the relative viability ([22]; first compound 0.005 µM) was 1.01, the relative viability ([22]; first compound 0.01581 µM) was 1.06 and the relative viability ([22]; first compound 0.05 µM) was 0.908. It also gave a relative viability ([22]; first compound 0.1581 µM) of 1.14 and a relative viability ([22]; first compound 0.5 µM) of 1.04.
